Laboratory results as given in publication PMC10892375, “Determination of the Cannabinoid CB1 Receptor’s Positive Allosteric Modulator Binding Site through Mutagenesis Studies” (Pharmaceuticals, 2024).

What was measured:
Type in all cases: cell-based
hCB1 mutant S173A^2.60 = target: T1, hCB1 mutant S173A^2.60 (Homo sapiens, UniProt P21554, S173A); assay: pIRES G protein dissociation BRET assay, S173A mutant; conditions: 10 μM ligand alone
T1 construct: expressed in transfected cells; host or cells: HEK293
Experimental: (§1) Mutagenesis studies using the pIRES G protein dissociation assay were performed using human embryonic kidney 293 (HEK293) wild-type cells transiently transfected with pplss-3HA-hCB1 [31] or modified receptor. All cells were cultured in Dulbecco’s Modified Eagle’s Medium (DMEM) supplemented with 10% fetal bovine serum (FBS), grown in […] vented-cap flasks, and maintained in a 37° C incubator at 5% CO2.
(§2) Mutants of pplss-3HA-hCB1 (WT, pEF-V4-HisA (pEF4a) construct) were generated using a modified QuikChange® (Stratagene, San Diego, CA, USA) site-directed mutagenesis approach using KAPA HiFi Hotstart Polymerase (KAPA Biosystems, Roche, Basel, Switzerland). Briefly, single-stranded primers used to modify one or two base pairs within the target amino acid using PCR were purchased from Integrated DNA Technologies (IDT, Coralville, IA, USA). All pplss-hCB1 mutants were generated using the pplss-3HA-hCB1 pEF4a as parental DNA. PCR products were generated using recommended cycling conditions and treated with Dpn1 (New England Biolabs, Ipswich, MA, USA) overnight at 37° C to digest methylated parental DNA. PCR products were electrophoresed and run on an agarose gel (1% (w.v^−1) agarose, HydraGene, Piscataway, NJ, USA) containing 0.25 μg/mL ethidium bromide (Sigma-Aldrich, St. Louis, MO, USA). Gels were run in 40 mM TRIS-acetate buffer containing […] (pH 8.3) at 100 V for 30 min, maximum current and included a 1kb+ DNA ladder (Invitrogen, Thermo Fisher Scientific, Carlsbad, CA, USA) for reference. Gels were imaged using an UVTech Alliance Q9 Mini transilluminator (UVTech Alliance, Cambridge, UK). Digested products were then used to transform NEB 5α competent E. coli cells in accordance with manufacturer’s instructions. Briefly, transformed PCR products were grown overnight on 8.5 mL Luria Broth agar plates (containing 100 μg/mL ampicillin) at 37° C. Single bacterial colonies were picked and inoculated in Luria Broth (containing 100 μg/mL ampicillin) and grown overnight in a shaking incubator at 37° C. Plasmids were then harvested and purified using a Qiagen miniprep kit (Qiagen, Hilden, Germany) and validated using sequencing (Genetics Analysis Service, University of Otago, Dunedin, New Zealand).
(§3) Dissociation of the G protein heterotrimer, specifically Gαi1, Gβ1, and Gγ2, was investigated using a bioluminescence resonance energy transfer (BRET) assay with the pIRES biosensor first described by and adapted by.
(§4) Briefly, 3 × 10^6 WT HEK293 cells were seeded into 10 cm culture dishes (Corning, Corning, NY, USA; one dish for the control receptor and one for each modified receptor) and incubated at 37 °C for 24 h to gain 50–60% confluency. Culture medium was then replaced and transfection mixtures containing 3 μg pIRES vector and 1 μg receptor (either pplss-hCB1 or modified receptor) were prepared (4 μg total DNA). Plasmids were initially diluted in sterile Milli-Q water before being diluted in OptiMEM reduced serum medium (Thermo Fisher Scientific, Waltham, MA, USA) and combined with […] polyethylenimine (PEI)-max (1:9 DNA:PEI-max ratio) and incubated at room temperature for 20 min. Transfection mixtures were then added to cells via dropwise addition, and cells were incubated at 37 °C for 24 h. Transfected cells were lifted and plated at 50,000 cells/well into poly-d-lysine (PDL; Sigma-Aldrich) coated white 96-well CulturPlates (PerkinElmer, Waltham, MA, USA) and incubated for a further 24 h at 37 °C.
(§5) To assay, the culture medium was aspirated and cells were washed with phosphate buffered saline (PBS) and replaced with BRET assay medium (phenol red free DMEM containing 25 mM HEPES and supplemented with 1 mg/mL bovine serum albumin; BSA, MP Biomedicals, Auckland, New Zealand) for 30 min prior to drug addition (serum starve). Drugs were prepared at 10 × concentration in BRET assay medium, combined in a polypropylene V-bottom plate, and incubated at 37° C prior to drug stimulation.

hCB1 mutant I245A^4.54 = target: T2, hCB1 mutant I245A^4.54 (Homo sapiens, UniProt P21554, I245A); assay: pIRES G protein dissociation BRET assay, I245A mutant; conditions: 10 μM ligand alone
T2 construct: expressed in transfected cells; host or cells: HEK293
Experimental: as §1, §2, §3, §4, §5

hCB1 mutant R220A^3.56 = target: T3, hCB1 mutant R220A^3.56 (Homo sapiens, UniProt P21554, R220A); assay: pIRES G protein dissociation BRET assay, R220A mutant; conditions: 10 μM ligand alone
T3 construct: expressed in transfected cells; host or cells: HEK293
Experimental: as §1, §2, §3, §4, §5

hCB1 mutant Y172A^2.59 = target: T4, hCB1 mutant Y172A^2.59 (Homo sapiens, UniProt P21554, Y172A); assay: pIRES G protein dissociation BRET assay, Y172A mutant; conditions: for G protein dissociation, AUC of 10 μM compound (maximal response): 10 μM ligand alone
T4 construct: expressed in transfected cells; host or cells: HEK293
Experimental: as §1, §2, §3, §4, §5

hCB1 mutant F191A^3.27 = target: T5, hCB1 mutant F191A^3.27 (Homo sapiens, UniProt P21554, F191A); assay: pIRES G protein dissociation BRET assay, F191A mutant; conditions: for G protein dissociation, AUC of 10 μM compound (maximal response): 10 μM ligand alone; for Allosteric agonism: G protein dissociation in the absence of an orthosteric ligand: 10 μM, result in words
T5 construct: expressed in transfected cells; host or cells: HEK293
Experimental: as §1, §2, §3, §4, §5

hCB1 mutant F237A^4.46 = target: T6, hCB1 mutant F237A^4.46 (Homo sapiens, UniProt P21554, F237A); assay: pIRES G protein dissociation BRET assay, F237A mutant; conditions: 10 μM ligand alone
T6 construct: expressed in transfected cells; host or cells: HEK293
Experimental: as §1, §2, §3, §4, §5

hCB1 mutant H154A^2.41 = target: T7, hCB1 mutant H154A^2.41 (Homo sapiens, UniProt P21554, H154A); assay: pIRES G protein dissociation BRET assay, H154A mutant; conditions: 10 μM ligand alone
T7 construct: expressed in transfected cells; host or cells: HEK293
Experimental: as §1, §2, §3, §4, §5

hCB1 mutant L404A^8.50 = target: T8, hCB1 mutant L404A^8.50 (Homo sapiens, UniProt P21554, L404A); assay: pIRES G protein dissociation BRET assay, L404A mutant; conditions: 10 μM ligand alone
T8 construct: expressed in transfected cells; host or cells: HEK293
Experimental: as §1, §2, §3, §4, §5

hCB1 mutant F289A^5.53 = target: T9, hCB1 mutant F289A^5.53 (Homo sapiens, UniProt P21554, F289A); assay: pIRES G protein dissociation BRET assay, F289A mutant; conditions: 10 μM ligand alone
T9 construct: expressed in transfected cells; host or cells: HEK293
Experimental: as §1, §2, §3, §4, §5

T5 sequence (P21554 whole entry F191A): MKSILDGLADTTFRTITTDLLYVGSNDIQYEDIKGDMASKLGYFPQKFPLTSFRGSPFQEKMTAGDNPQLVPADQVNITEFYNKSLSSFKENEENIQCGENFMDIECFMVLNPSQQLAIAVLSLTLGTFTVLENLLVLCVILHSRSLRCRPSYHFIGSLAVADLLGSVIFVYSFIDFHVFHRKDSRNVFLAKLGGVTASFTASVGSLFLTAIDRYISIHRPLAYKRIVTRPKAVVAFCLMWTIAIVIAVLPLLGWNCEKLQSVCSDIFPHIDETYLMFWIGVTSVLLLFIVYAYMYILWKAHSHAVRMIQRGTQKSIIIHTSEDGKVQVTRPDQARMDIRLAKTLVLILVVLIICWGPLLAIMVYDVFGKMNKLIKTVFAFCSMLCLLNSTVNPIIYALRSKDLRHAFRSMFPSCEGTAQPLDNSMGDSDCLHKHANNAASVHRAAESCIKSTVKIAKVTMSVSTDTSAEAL
T4 sequence (P21554 whole entry Y172A): as the sequence (P21554 whole entry F191A) above, with Y172A, A191F counted along it
T1 sequence (P21554 whole entry S173A): as the sequence (P21554 whole entry F191A) above, with S173A, A191F counted along it
T7 sequence (P21554 whole entry H154A): as the sequence (P21554 whole entry F191A) above, with H154A, A191F counted along it
T9 sequence (P21554 whole entry F289A): as the sequence (P21554 whole entry F191A) above, with A191F, F289A counted along it
T6 sequence (P21554 whole entry F237A): as the sequence (P21554 whole entry F191A) above, with A191F, F237A counted along it
T3 sequence (P21554 whole entry R220A): as the sequence (P21554 whole entry F191A) above, with A191F, R220A counted along it
T8 sequence (P21554 whole entry L404A): as the sequence (P21554 whole entry F191A) above, with A191F, L404A counted along it
T2 sequence (P21554 whole entry I245A): as the sequence (P21554 whole entry F191A) above, with A191F, I245A counted along it

SMILES | G protein dissociation, AUC of 10 μM compound (maximal response) (hCB1 mutant S173A^2.60) | G protein dissociation, AUC of 10 μM compound (maximal response) (hCB1 mutant I245A^4.54) | G protein dissociation, AUC of 10 μM compound (maximal response) (hCB1 mutant R220A^3.56) | Increase in the potency of CP55940-induced G protein dissociation (hCB1 mutant Y172A^2.59; 10 μM allosteric ligand) | G protein dissociation, AUC of 10 μM compound (maximal response) (hCB1 mutant Y172A^2.59) | G protein dissociation, AUC of 10 μM compound (maximal response) (hCB1 mutant F191A^3.27) | Allosteric agonism: G protein dissociation in the absence of an orthosteric ligand (hCB1 mutant F191A^3.27) | G protein dissociation, AUC of 10 μM compound (maximal response) (hCB1 mutant F237A^4.46) | G protein dissociation, AUC of 10 μM compound (maximal response) (hCB1 mutant H154A^2.41) | G protein dissociation, AUC of 10 μM compound (maximal response) (hCB1 mutant L404A^8.50) | G protein dissociation, AUC of 10 μM compound (maximal response) (hCB1 mutant F289A^5.53)
O=[N+]([O-])C[C@@H](c1ccccc1)c1c(-c2ccccc2)[nH]c2ccccc12 [GAT229] | −137.3 ± 4.8 | −121.6 ± 8.0 | −102.9 ± 9.9 | less than 0.5 log units | −207.0 ± 7.1 | 22.1 ± 6.4 | abolished | −52.4 ± 5.2 | −154.6 ± 7.8 | −88.9 ± 6.2 | −123.6 ± 5.9
Cc1ccc2c(C(C[N+](=O)[O-])c3cccs3)c(-c3ccccc3)[nH]c2c1 (stereo not drawn) [ZCZ011, 6-Methyl-3-(2-nitro-1-(thiophen-2-yl)ethyl)-2-phenyl-1 H-indole] | −144.2 ± 6.8 | −130.4 ± 12.9 | −95.7 ± 7.7 |  | −142.1 ± 14.4 | 35.0 ± 8.4 | abolished | −64.2 ± 4.1 | −129.4 ± 5.1 | −85.2 ± 7.3 | −135.5 ± 6.3
